The record followed here is publication PMC11042244 (RSC Medicinal Chemistry, 2024).

Where only a bound is given, the exact number is not on record here.

Assay [1] deals with ROS produced by PMA-stimulated murine bone marrow leukocytes. The assay can be described thus: Antiradical activity assay: L-012-enhanced chemiluminescence of ROS production. In kind it is cell-based, murine (BALB/c mice). As to the method: (§1) All animal use was conducted in accordance with a protocol approved by the Institutional Animal Care and Use Committee (IACUC) at Montana State University (protocol approval number 2022-45-IA). Bone marrow leukocytes were flushed from tibias and femurs of BALB/c mice (2-month old; 25 g body weight) or CD-1 female mice (2.5-month old; 30 g body weight) with HBSS, filtered through a 70 μm nylon cell strainer (BD Biosciences, Franklin Lakes, NJ) to remove cell clumps and bone particles.
To evaluate antiradical activity, murine bone marrow leukocytes from BALB/c mice were resuspended at 10^6 cells per ml in HBSS containing Ca^2+ and Mg^2+ (HBSS^+) and supplemented with 40 μM L-012 (Wako Chemicals, Richmond, VA),[51] since L-012-enhanced chemiluminescence represents a sensitive and reliable method for detecting ROS.[52] The cells (100 μl) were then aliquoted into wells of 96-well flat-bottom white microtiter plates containing test compounds diluted in 100 μl of HBSS^+ (final DMSO concentration of 1%). The cells were activated by adding 200 nM PMA (Sigma Chemical Co., St. Louis, MO), and luminescence was monitored for 60 min (2 min intervals) at 37 °C using a Fluoroskan Ascent FL microtiter plate reader (Thermo Electron, Waltham, MA). The compound concentration that inhibited ROS production by 50% of the PMA-stimulated response was determined by graphing the percentage inhibition of the 60 min integrated luminescence versus the logarithm of concentration of test compound. Each curve was determined using five to seven compound concentrations. Curve fitting and calculation of median effective concentration values (IC50) were performed by nonlinear regression analysis of the dose–response curves generated using Prism 10 (GraphPad Software, Inc., San Diego, CA, USA).

For assay [2], the system named is murine bone marrow leukocytes. Description: Cytotoxicity assay (CellTiter-Glo luminescent cell viability). The settings on record: for Cyto-toxicity IC50: 90 min incubation, mean ± SD of three experiments, N.A. = no cytotoxicity at the highest concentration tested (25 μM); for IC50: Mus musculus, Leukocyte, read-out: Cyto-toxicity IC50. In kind it is cell-based, murine (CD-1 mice). The procedure:
as §1
The cytotoxicity of compounds for murine bone marrow leukocytes was analyzed using a CellTiter-Glo Luminescent Cell Viability Assay kit (Promega), according to the manufacturer's protocol. Briefly, bone marrow leukocytes from CD-1 mice were incubated at a density of 10^4 cells per well with different concentrations of compounds (the final concentration of DMSO was 1%) for 90 min at 37 °C and 5% CO2. Following treatment, the substrate was added to the cells, and the samples were analyzed with a FlexStation 3 microplate reader (Molecular Devices, San Jose, CA), USA.
A general note: Cellular ATP, detected with luciferase, serves as a proxy for viable cell number.

In assay [3] the target is T1, HNE (human neutrophil elastase) (Homo sapiens, UniProt P08246).
T1 construct: purchased Calbiochem
T1 sequence (P08246 30-247 limits assumed): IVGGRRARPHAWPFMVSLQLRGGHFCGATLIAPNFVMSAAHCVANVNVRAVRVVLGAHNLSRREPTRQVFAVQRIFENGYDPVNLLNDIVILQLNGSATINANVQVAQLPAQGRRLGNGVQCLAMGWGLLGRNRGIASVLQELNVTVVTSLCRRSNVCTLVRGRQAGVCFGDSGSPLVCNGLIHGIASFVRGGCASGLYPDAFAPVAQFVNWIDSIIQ
Description: HNE inhibition assay (fluorogenic substrate, enzymatic). In kind it is biochemical. The settings on record: mean ± SD of three independent experiments, N.A. = no inhibitory activity at the highest concentration tested (50 μM). As to the method:
All compounds were dissolved in 100% DMSO at 5 mM stock concentrations and then subsequently diluted in 100% DMSO at various concentrations appropriate for use in the dose–response assays. […] The HNE inhibition assay was performed in black flat-bottom 96-well microtiter plates. Briefly, a buffer solution containing 200 mM Tris-HCl, pH 7.5, 0.01% bovine serum albumin, and 0.05% Tween-20 and 20 mU mL^−1 of HNE (Calbiochem) was added to wells containing different concentrations of each compound. The reaction was initiated by addition of 25 μM elastase substrate (N-methylsuccinyl-Ala-Ala-Pro-Val-7-amino-4-methylcoumarin, Calbiochem) in a final reaction volume of 100 μL per well. Kinetic measurements were obtained every 30 s for 10 min at 25 °C using a Fluoroskan Ascent FL fluorescence microplate reader (Thermo Electron, MA) with excitation and emission wavelengths of 355 and 460 nm, respectively. For all compounds tested, the concentration of inhibitor that caused 50% inhibition of the enzymatic reaction (IC50) was calculated by plotting % inhibition versus logarithm of inhibitor concentration (at least six points).[50]

[4] abbreviates: inhibition of ROS production, 200 nM PMA, 60 min integrated luminescence, mean ± SD of three experiments, N.A. = no inhibitory activity at the highest concentration tested (50 μM).

As usually defined, the IC50 is the point on the concentration scale where inhibition reaches its midpoint. On to `CCOC(=O)c1ccc(-n2[se]c3ccccc3c2=O)cc1` [3b], for which, in assay [1] (Mus musculus, Leukocyte, 1 h), the IC50 amounted to 1800 ± 200 nM. Also, in assay [2], the “Cyto-toxicity IC50” value was “no cytotoxicity”.
As to `O=C(NC1CC1)c1ccc(-n2[se]c3ccccc3c2=O)cc1` [3c, N-Cyclopropyl-4-(3-oxobenzo[d][1,2]selenazol-2(3H)-yl)benzamide], the IC50 in assay [1] (Mus musculus, Leukocyte, 1 h) was determined as 9700 ± 1400 nM; in assay [2], 8000 ± 1900 nM.
For `Cc1cccc(NC(=O)c2ccc(-n3[se]c4ccccc4c3=O)cc2)c1` [3d, 4-(3-Oxobenzo[d][1,2]selenazol-2(3H)-yl)-N-(m-tolyl)benzamide], in assay [1] (setting [4]), the “Antiradical activity IC50” value was “inactivity”. Besides, the “Cyto-toxicity IC50” value in assay [2] was “no cytotoxicity”.
Turning to `CC(=O)n1[se]c2ccccc2c1=O` [4a, 2-Acetylbenzo[d][1,2]selenazol-3(2H)-one], the IC50 turned out to be 420 ± 60 nM in assay [1] (Mus musculus, Leukocyte, 1 h); 10800 ± 2400 nM in assay [2]; 7700 ± 2300 nM in assay [3].
In the same order, the values of `CCC(=O)n1[se]c2ccccc2c1=O` [4b, 2-Propionylbenzo[d][1,2]selenazol-3(2H)-one] are 180 ± 50 nM, 8500 ± 1800 nM and 2600 ± 200 nM.
For the molecule `CCCC(=O)n1[se]c2ccccc2c1=O` [4c, 2-Butyrylbenzo[d][1,2]selenazol-3(2H)-one], the concentration for half-maximal inhibition (IC50) was 330 ± 80 nM in assay [1] (Mus musculus, Leukocyte, 1 h); 4900 ± 600 nM in assay [2]; 2400 ± 400 nM in assay [3].
In the same order, the values of `CC(C)C(=O)n1[se]c2ccccc2c1=O` [4d, 2-Isobutyrylbenzo[d][1,2]selenazol-3(2H)-one] are 600 ± 200 nM, 9600 ± 2200 nM and 1200 ± 100 nM.
With `CC(C)(C)C(=O)n1[se]c2ccccc2c1=O` [4e, 2-Pivaloylbenzo[d][1,2]selenazol-3(2H)-one], the half-inhibitory concentration (IC50) in assay [1] (Mus musculus, Leukocyte, 1 h) turned out to be 2600 ± 400 nM; in assay [2] it was 13600 ± 3100 nM; in assay [3], 1800 ± 100 nM.
For the molecule `CCCCC(=O)n1[se]c2ccccc2c1=O` [4f, 2-pentanoylbenzo[d][1,2]selenazol-3(2H)-one], the IC50 in assay [1] (Mus musculus, Leukocyte, 1 h) is under 1000 nM; in assay [1] (setting [4]), 700 ± 200 nM; in assay [2] it was 4200 ± 900 nM; in assay [3], 900 ± 200 nM.
Turning to `CCCCCC(=O)n1[se]c2ccccc2c1=O` [4g, 2-Hexanoylbenzo[d][1,2]selenazol-3(2H)-one], the “Antiradical activity IC50” value in assay [1] (setting [4]) is recorded as “inactivity”. Also, in assay [2], the “Cyto-toxicity IC50” value is listed as “no cytotoxicity”. Moreover, in assay [3], the IC50 was found to be 3000 ± 400 nM.
Consider `CCOC(=O)n1[se]c2ccccc2c1=O` [4h, Ethyl 3-oxobenzo[d][1,2]selenazole-2(3H)-carboxylate], for which the IC50 in assay [1] (Mus musculus, Leukocyte, 1 h) amounted to 2500 ± 400 nM; in assay [2], 15200 ± 3200 nM. For the same molecule, the “HNE inhibition IC50” value in assay [3] was “completely inactive”.
Regarding `CCOC(=O)CC(=O)n1[se]c2ccccc2c1=O` [4i, Ethyl 3-oxo-3-(3-oxobenzo[d][1,2]selenazol-2(3H)-yl)propanoate], the IC50 amounted to 1000 ± 300 nM in assay [1] (Mus musculus, Leukocyte, 1 h) and 8100 ± 1700 nM in assay [2].
As to `O=C(C1CC1)n1[se]c2ccccc2c1=O` [4j, 2-(Cyclopropanecarbonyl)benzo[d][1,2]selenazol-3(2H)-one], the IC50 came out at 10400 ± 2400 nM in assay [2] and 1400 ± 100 nM in assay [3].
As to `O=C(C1CCCC1)n1[se]c2ccccc2c1=O` [4k, 2-(Cyclopentanecarbonyl)benzo[d][1,2]selenazol-3(2H)-one], the IC50 was 1400 ± 200 nM in assay [1] (Mus musculus, Leukocyte, 1 h); 11800 ± 2800 nM in assay [2]; 2800 ± 200 nM in assay [3].
In the same order, the values of `O=C(C1CCCCC1)n1[se]c2ccccc2c1=O` [4l, 2-(Cyclohexanecarbonyl)benzo[d][1,2]selenazol-3(2H)-one] are 1100 ± 100 nM, 12400 ± 3400 nM and 24100 ± 4800 nM.
In turn, `O=C(c1ccccc1)n1[se]c2ccccc2c1=O` [4m, 2-Benzoylbenzo[d][1,2]selenazol-3(2H)-one] showed an IC50 in assay [3] of 2300 ± 400 nM.
Take `Cc1cccc(C(=O)n2[se]c3ccccc3c2=O)c1` [4n, 2-(3-Methylbenzoyl)benzo[d][1,2]selenazol-3(2H)-one]: the IC50 in assay [1] (Mus musculus, Leukocyte, 1 h) was 7000 ± 1300 nM; in assay [3], 10900 ± 2100 nM. In addition, in assay [2], the “Cyto-toxicity IC50” value is on record as “no cytotoxicity”.
In the case of `COc1ccc(C(=O)n2[se]c3ccccc3c2=O)cc1` [4o, 2-(4-Methoxybenzoyl)benzo[d][1,2]selenazol-3(2H)-one], the midpoint of inhibition in assay [3], the IC50, lay at 8700 ± 1200 nM.
In the case of `O=C(c1ccsc1)n1[se]c2ccccc2c1=O` [4p, 2-(Thiophene-3-carbonyl)benzo[d][1,2]selenazol-3(2H)-one], in assay [1] (Mus musculus, Leukocyte, 1 h), the IC50 amounted to 14300 ± 2700 nM. For the same molecule, the “Cyto-toxicity IC50” value in assay [2] is “no cytotoxicity”.
Take `O=c1c2ccccc2[se]n1-c1ccccc1` [Ebselen (3a), 2-phenyl-1,2-benzoselenazol-3(2H)-one, reference compound]: in assay [2], the IC50 came out at 9500 ± 2500 nM. Also, the “HNE inhibition IC50” value in assay [3] was “completely inactive”.
For `CC(C)(C)C(=O)Oc1ccc(S(=O)(=O)Nc2ccccc2C(=O)NCC(=O)O)cc1` [Sivelestat, reference compound], the “Cyto-toxicity IC50” value in assay [2] is recorded as “no cytotoxicity”.
On to `CC(C)(C)C(=O)Oc1ccc(S(=O)(=O)n2[se]c3ccccc3c2=O)cc1` [compound 6, 4-[(3-Oxobenzo[d][1,2]selenazol-2(3H)-yl)sulfonyl]phenyl pivalate], for which the IC50 in assay [1] (Mus musculus, Leukocyte, 1 h) is 6400 ± 400 nM; in assay [3], 2700 ± 500 nM. In addition, in assay [2], the “Cyto-toxicity IC50” value is given as “no cytotoxicity”.
Regarding `O=C(NC1CC1)n1[se]c2ccccc2c1=O` [compound 8, N-Cyclopropyl-3-oxobenzo[d][1,2]selenazole-2(3H)-carboxamide], the IC50 in assay [1] (Mus musculus, Leukocyte, 1 h) was found to be 900 ± 300 nM; in assay [2], 5900 ± 1600 nM. For the same molecule, the “HNE inhibition IC50” value in assay [3] was “completely inactive”.
